Laboratory results reported in ChEMBL document CHEMBL1131435, “Biphenylsulfonamide endothelin antagonists: structure-activity relationships of a series of mono- and disubstituted analogues and pharmacology of the orally active endothelin antagonist 2'-amino-N- (3,4-dimethyl-5-isoxazolyl)-4'-(2-methylpropyl)[1, 1'-biphenyl]-2-sulfonamide (BMS-187308)” (J Med Chem, 1998).
Where a SMILES comes first, the peptide text is derived from it.

Tests used:
Endothelin-1 receptor = target: T1, Endothelin-1 receptor (Rattus norvegicus, UniProt P26684); experiment: Ability to inhibit binding of [125I]ET1 to membranes prepared from A10 rat thoracic aorta smooth muscle Endothelin A receptor; type: tissue-based
T1 sequence (P26684 whole entry): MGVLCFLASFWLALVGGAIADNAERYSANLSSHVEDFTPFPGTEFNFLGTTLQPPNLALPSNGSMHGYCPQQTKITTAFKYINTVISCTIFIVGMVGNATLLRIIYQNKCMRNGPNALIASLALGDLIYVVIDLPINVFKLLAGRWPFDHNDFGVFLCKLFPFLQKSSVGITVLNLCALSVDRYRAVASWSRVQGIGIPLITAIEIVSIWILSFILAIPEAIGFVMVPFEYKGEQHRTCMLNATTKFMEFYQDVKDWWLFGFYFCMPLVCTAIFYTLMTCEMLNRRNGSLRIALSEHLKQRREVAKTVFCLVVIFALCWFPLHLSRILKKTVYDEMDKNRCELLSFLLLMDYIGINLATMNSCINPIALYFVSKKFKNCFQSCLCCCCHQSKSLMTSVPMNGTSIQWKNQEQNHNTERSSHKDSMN

[1] = target: T2, Endothelin receptor type B (Rattus norvegicus, UniProt P21451); experiment: Ability to inhibit binding of [125I]-ET-1 to membranes prepared from […] rat cerebellum (Endothelin B receptor); type: tissue-based
T2 sequence (P21451 whole entry): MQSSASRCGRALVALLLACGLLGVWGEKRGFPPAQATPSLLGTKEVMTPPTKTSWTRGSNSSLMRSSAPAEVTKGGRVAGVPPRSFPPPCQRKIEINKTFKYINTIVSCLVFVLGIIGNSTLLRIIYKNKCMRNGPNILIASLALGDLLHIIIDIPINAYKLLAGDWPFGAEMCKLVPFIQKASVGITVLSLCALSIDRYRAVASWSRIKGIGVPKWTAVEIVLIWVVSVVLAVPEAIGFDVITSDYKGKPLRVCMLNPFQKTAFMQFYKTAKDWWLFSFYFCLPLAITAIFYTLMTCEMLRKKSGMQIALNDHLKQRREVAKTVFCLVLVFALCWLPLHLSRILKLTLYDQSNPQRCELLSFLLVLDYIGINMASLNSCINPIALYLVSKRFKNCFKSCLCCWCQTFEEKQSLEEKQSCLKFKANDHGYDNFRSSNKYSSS

SMILES | Ki (Endothelin-1 receptor) [nM] | Ki [1] [nM]
Cc1noc(NS(=O)(=O)c2ccccc2-c2ccc(CC(C)C)cc2)c1C | 18 | 1700
Cc1noc(NS(=O)(=O)c2ccccc2-c2ccc(CC(C)C)cc2N)c1C | 4.7 | 1700
CCCNc1cc(CC(C)C)ccc1-c1ccccc1S(=O)(=O)Nc1onc(C)c1C | 29 | 3700
Cc1noc(NS(=O)(=O)c2ccccc2-c2ccc(CC(C)C)cc2C(N)=O)c1C | 100 | 12000
Cc1noc(NS(=O)(=O)c2ccccc2Oc2ccccc2)c1C | 2100 | 
CNc1cc(CC(C)C)ccc1-c1ccccc1S(=O)(=O)Nc1onc(C)c1C | 14 | 2200
Cc1noc(NS(=O)(=O)c2ccccc2-c2ccc(OCc3ccccc3)cc2)c1C | 190 | 8400
CC(C)Cc1ccc(-c2ccccc2S(=O)(=O)Nc2onc3c2CCCC3)cc1 | 24000 | > 200000
COc1cc(CC(C)C)ccc1-c1ccccc1S(=O)(=O)Nc1onc(C)c1C | 74 | 54000
Cc1noc(NS(=O)(=O)c2ccc(NC(=O)CN)cc2-c2ccc(CC(C)C)cc2)c1C | 1200 | 7400
Cc1noc(NS(=O)(=O)c2ccccc2-c2ccc(S(=O)(=O)C(C)C)cc2)c1C | 110 | 170000
Cc1cnoc1NS(=O)(=O)c1ccccc1-c1ccc(CC(C)C)cc1 | 970 | 100000
Cc1noc(NS(=O)(=O)c2ccccc2-c2ccc(CC(C)C)cc2C(=O)O)c1C |  | 26000
Cc1noc(NS(=O)(=O)c2cccc(OCC(=O)O)c2-c2ccc(CC(C)C)cc2)c1C | 42 | 4000
Cc1cccc(-c2ccc(CC(C)C)cc2)c1S(=O)(=O)Nc1onc(C)c1C | 1300 | 19000
Cc1noc(NS(=O)(=O)c2ccccc2-c2ccc(N(C)C(C)C)cc2)c1C | 60 | 20000
Cc1noc(NS(=O)(=O)c2cc(O)ccc2-c2ccc(CC(C)C)cc2)c1C | 500 | 24000
CNC(=O)Nc1cc(CC(C)C)ccc1-c1ccccc1S(=O)(=O)Nc1onc(C)c1C | 43 | 5400
Cc1noc(NS(=O)(=O)c2cccc(OCCO)c2-c2ccc(CC(C)C)cc2)c1C | 2.7 | 2300
CCCc1ccc(-c2ccccc2S(=O)(=O)Nc2onc(C)c2C)cc1 | 28 | 15000
CC(=O)Nc1ccc(S(=O)(=O)Nc2onc(C)c2C)c(-c2ccc(CC(C)C)cc2)c1 |  | 9800
CC(C)Cc1ccc(-c2ccccc2S(=O)(=O)Nc2ccc(Cl)nn2)cc1 | 400 | 44000
CCNc1cc(CC(C)C)ccc1-c1ccccc1S(=O)(=O)Nc1onc(C)c1C | 6.3 | 1400
Cc1[n-][o+]c(NS(=O)(=O)c2ccccc2-c2ccc(CC(C)C)cc2)c1[N+](=O)[O-] |  | 30000
Cc1noc(NS(=O)(=O)c2ccccc2C(F)(F)F)c1C | 700 | 

SMILES | Ki (Endothelin-1 receptor) [nM] | Ki [1] [nM]
Cc1noc(NS(=O)(=O)c2ccccc2-c2ccccc2CO)c1C | 40 | > 200000
Cc1noc(NS(=O)(=O)c2ccccc2-c2ccc(CC(C)C)cc2CO)c1C | 20 | 1300
Cc1noc(NS(=O)(=O)c2ccccc2-c2ccc(CC(C)C)cc2N(C)C)c1C | 330 | > 100000
Cc1noc(NS(=O)(=O)c2ccccc2-c2ccc(CC(C)C)cc2NC(C)C)c1C | 34 | 2900
Cc1noc(NS(=O)(=O)c2ccccc2-c2ccc(CC(C)C)cc2CNC=O)c1C | 2 | 1200
CCOC(=O)c1c(C)noc1NS(=O)(=O)c1ccccc1-c1ccc(CC(C)C)cc1 | 7200 | 42000
Cc1[n-][o+]c(NS(=O)(=O)c2ccccc2[N+](=O)[O-])c1C | 3500 | 
CCCCc1ccc(-c2ccccc2S(=O)(=O)Nc2onc(C)c2C)cc1 | 37 | 1900
Cc1noc(NS(=O)(=O)c2ccccc2-c2ccc(CC(C)C)cc2)c1Cc1ccccc1 | 6400 | > 200000
Cc1noc(NS(=O)(=O)c2ccccc2-c2ccc(C(C)(C)C)cc2)c1C | 61 | 15000
Cc1noc(NS(=O)(=O)c2ccccc2-c2ccccc2)c1C |  | > 200000
Cc1noc(NS(=O)(=O)c2ccccc2C(C)C)c1C | 600 | 
Cc1noc(NS(=O)(=O)c2ccc(NC(=O)c3ccccc3)cc2-c2ccc(CC(C)C)cc2)c1C | 5800 | 38000
Cc1noc(NS(=O)(=O)c2ccccc2-c2ccc(NC(C)C)cc2)c1C | 50 | 17000
Cc1noc(NS(=O)(=O)c2ccccc2-c2ccc(CC(C)C)cc2NCCO)c1C | 6.4 | 1600
Cc1noc(NS(=O)(=O)c2ccccc2-c2ccc(CCC(C)C)cc2)c1C | 80 | 30000
Cc1noc(NS(=O)(=O)c2ccccc2-c2ccc(OC(C)C)cc2)c1C | 17 | 1500
Cc1noc(NS(=O)(=O)c2ccccc2-c2ccc(OCC(C)C)cc2)c1C | 32 | 2800
Cc1noc(NS(=O)(=O)c2ccccc2-c2ccccc2N)c1C | 16 | > 200000
Cc1noc(NS(=O)(=O)c2ccccc2-c2ccc(CC(C)C)cc2NC=O)c1C | 17 | 6900
Cc1noc(NS(=O)(=O)c2ccccc2-c2ccc(SC(C)C)cc2)c1C | 39 | 5700
Cc1noc(NS(=O)(=O)c2ccccc2-c2ccc(C(C)C)cc2)c1C | 50 | 19000
Cc1noc(NS(=O)(=O)c2ccccc2-c2ccc(C(=O)O)cc2)c1C |  | > 200000
Cc1noc(NS(=O)(=O)c2ccccc2-c2cccc(N(C)C)c2)c1C | 112 | > 200000
Cc1noc(NS(=O)(=O)c2cc(OCc3ccccc3)ccc2-c2ccc(CC(C)C)cc2)c1C | > 20000 | > 200000

SMILES | Ki (Endothelin-1 receptor) [nM] | Ki [1] [nM]
Cc1noc(NS(=O)(=O)c2ccccc2-c2ccc(N(C)C)cc2)c1C | 54 | 6000
COc1cc(OC)nc(NS(=O)(=O)c2ccccc2-c2ccc(CC(C)C)cc2)n1 | 3900 | 50000
Cc1noc(NS(=O)(=O)c2ccccc2-c2ccc(S(=O)(=O)N(C)C)cc2)c1C | 560 | > 200000
Cc1noc(NS(=O)(=O)c2ccccc2-c2ccc(CC(C)C)cc2F)c1C | 20 | 12000
Cc1noc(NS(=O)(=O)c2ccccc2-c2ccccc2[N+](=O)[O-])c1C | 140 | > 200000
Cc1noc(NS(=O)(=O)c2ccccc2-c2ccc(CC(C)C)cc2NCC(=O)O)c1C | 89 | 12000
Cc1ccc(-c2ccccc2S(=O)(=O)Nc2onc(C)c2C)cc1 | 55 | 23000
Cc1noc(NS(=O)(=O)c2ccccc2-c2cccc(CC(C)C)c2)c1C | 190 | 5600
Cc1cc(CC(C)C)ccc1-c1ccccc1S(=O)(=O)Nc1onc(C)c1C | 5 | 19000
Cc1noc(NS(=O)(=O)c2ccc(NCC(=O)O)cc2-c2ccc(CC(C)C)cc2)c1C | 550 | 1900
Cc1noc(NS(=O)(=O)c2ccccc2-c2ccc(CC(C)(C)C)cc2)c1C | 110 | 4100
COc1ccc(S(=O)(=O)Nc2onc(C)c2C)c(-c2ccc(CC(C)C)cc2)c1 | 370 | 6200
Cc1noc(NS(=O)(=O)c2ccc(N)cc2-c2ccc(CC(C)C)cc2)c1C | 14 | 2100
Cc1noc(NS(=O)(=O)c2ccccc2-c2ccccc2N(C)C)c1C | 103 | > 200000
Cc1noc(NS(=O)(=O)c2cccc(O)c2-c2ccc(CC(C)C)cc2)c1C | 5 | 940
COc1cccc(S(=O)(=O)Nc2onc(C)c2C)c1-c1ccc(CC(C)C)cc1 | 16 | 2000
COc1ccc(-c2ccccc2S(=O)(=O)Nc2onc(C)c2C)cc1 | 33 | 250000
Cc1noc(NS(=O)(=O)c2ccccc2-c2ccc(CC(C)C)cc2O)c1C | 8 | 9800
Cc1noc(NS(=O)(=O)c2ccccc2-c2ccc(CC(C)C)cc2CN)c1C | 100 | 9600
Cc1noc(NS(=O)(=O)c2ccccc2-c2cccc(N)c2)c1C | 62 | > 200000
Cc1onc(NS(=O)(=O)c2ccccc2-c2ccc(CC(C)C)cc2)c1C | 13 | 2000
Cc1noc(NS(=O)(=O)c2ccccc2F)c1C | 4700 | 
Cc1noc(NS(=O)(=O)c2cccc3c(N(C)C)cccc23)c1C [BMS-182874] | 55 | > 200000
CC(C)C[C@@H]1NC(=O)[C@@H](C(C)C)NC(=O)[C@@H]2CCCN2C(=O)[C@@H](CC(=O)O)NC(=O)[C@@H](Cc2c[nH]c3ccccc23)NC1=O [BQ-123] (HELM PEPTIDE1{L.[dW].[dD].P.[dV]}$PEPTIDE1,PEPTIDE1,1:R1-5:R2$$$V2.0) | 40 | 
